# Results taken from patent US20230263822A1, “MODULATION OF FACTOR 11 EXPRESSION” (Ionis Pharmaceuticals, Inc., priority 2008, published 2023).
# Experiments:
# [1] = Tolerability in CD1 mice: kidney function, BUN (Example 37); conditions: plasma, 50 mg/kg s.c. twice per week for 6 weeks
# [2] = mouse, in vivo, sc, 50 mg/kg
# [3] = test system: blood coagulation; test: PT and aPTT assay in cynomolgus monkeys (Example 46); assay type: in vivo; conditions: for PT ratio (INR) / aPTT ratio relative to PBS group: platelet poor plasma, relative to PBS group
# Outline: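 Male and female monkeys received antisense oligonucleotide subcutaneously at 25 mg/kg, three times weekly in week 1 and twice weekly in weeks 2–8, with PBS as control. PT and aPTT were measured on platelet-poor plasma from blood taken during dosing. Values are ratios to the PBS group raised to the tissue-factor ISI (INR).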
# [4] = test system: Factor 11 protein; test: Factor 11 protein in monkey plasma by sandwich ELISA (Example 46); assay type: in vivo, cynomolgus monkeys; conditions: cynomolgus monkeys, 25 mg/kg
# Outline: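 Monkeys (2 male, 2 female per group) dosed s.c. with antisense oligonucleotide at 25 mg/kg, three times weekly in week 1 then twice weekly through week 8; PBS controls. Plasma Factor 11 measured by sandwich ELISA (1:50 dilution, OPD, 490 nm); expressed as % reduction versus PBS.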
# [5] = mouse, in vivo, sc, 50 mg/kg; remark: listed apart in the source
substance,measurement,setting,value
"ISIS 416850: MOE gapmer, nucleobases 1275 to 1318 of SEQ ID NO: 1 (Table 8) (antisense TGCACAGTTTCTGGCAGGCC; MOE gapmer, wing and gap sizes not given here)",BUN,[1],24 mg/dL
same,ALT,[2],75 IU/L
same,AST,[2],99 IU/L
same,Bilirubin,[2],0.21 mg/dL
same,Cholesterol,[2],142 mg/dL
same,PT ratio (INR),[3]; Day 10,0.99
same,aPTT ratio relative to PBS group,[3]; Day 10,0.98
same,PT ratio (INR),[3]; Day 17,1.00
same,aPTT ratio relative to PBS group,[3]; Day 17,1.01
same,PT ratio (INR),[3]; Day 24,0.97
same,aPTT ratio relative to PBS group,[3]; Day 24,1.05
same,PT ratio (INR),[3]; Day 31,1.00
same,aPTT ratio relative to PBS group,[3]; Day 31,1.22
same,PT ratio (INR),[3]; Day 38,1.01
same,aPTT ratio relative to PBS group,[3]; Day 38,1.25
same,PT ratio (INR),[3]; Day 45,1.00
same,aPTT ratio relative to PBS group,[3]; Day 45,1.34
same,PT ratio (INR),[3]; Day 52,1.02
same,aPTT ratio relative to PBS group,[3]; Day 52,1.32
same,PT ratio (INR),[3]; Day 55,1.07
same,aPTT ratio relative to PBS group,[3]; Day 55,1.45
same,PT ratio (INR),[3]; Day −5,1.00
same,aPTT ratio relative to PBS group,[3]; Day −5,0.90
same,PT ratio (INR),[3]; Day −14,1.02
same,aPTT ratio relative to PBS group,[3]; Day −14,0.99
same,aPTT,"[3]; cynomolgus monkeys, 25 mg/kg",significantly prolonged
same,Factor 11 protein levels in plasma,[4],time-dependent decrease in protein levels
same,HCT,[5],49%
same,Lymphocyte,[5],4004 cells/μL
same,Neutrophil,[5],1144 cells/μL
same,Platelets,[5],916 10^3/μL
same,RBC,[5],10 10^6/μL
same,WBC,[5],5 10^3/μL
same,hemoglobin,[5],15 g/dL
same,monocytes,[5],156 cells/μL
